Results from ChEMBL document CHEMBL1201862, “PubChem BioAssay data set” (2004).
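Interpolation was linear, between the two tested concentrations surrounding the appropriate level; five concentrations were tested over 48 hours in 96-well plates. GI50 is the concentration that inhibits growth by half.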 Active and inactive are the calls of the source. No stated cut-off is given here; in the data, active = GI50 up to about 1.1 µM and inactive = higher.

Key:
Assay in all cases: NCI anticancer screen, dose series, 48 h
[1] = system: UACC-62
[2] = system: UACC-257
[3] = system: NCI-H23
[4] = system: A549
[5] = system: 786-0
[6] = system: SF-539
[7] = system: RPMI-8226
[8] = system: OVCAR-3
[9] = system: HT-29
[10] = system: SW-620
[11] = system: COLO 205
[12] = system: UO-31
[13] = system: IGROV-1
[14] = system: M14
[15] = system: HOP-62
[16] = system: RXF 393
[17] = system: T47D
[18] = system: PC-3
[19] = system: MDA-N

Measured: GI50

O=[N+]([O-])c1ccc2nc(/C(=N\Nc3ccccc3)C(O)c3ccc4c(c3)OCO4)c(O)nc2c1 (stereo unspecified)
inactive: [1] 34 µM | [2] > 100 µM | [3] > 100 µM | [4] > 100 µM | [5] > 100 µM | [6] > 100 µM | [7] 86.1 µM | [8] > 100 µM | [9] 97.1 µM | [10] 56.1 µM | [11] > 100 µM | [12] 79.3 µM | [13] 7.74 µM | [14] > 100 µM | [15] > 100 µM | [16] > 100 µM

NNC(=O)/C(NC(=O)c1ccccc1)=C(\N)c1ccc(Cl)cc1
inactive: [1] > 100 µM | [2] > 100 µM | [3] > 100 µM | [4] > 100 µM | [5] > 100 µM | [6] > 100 µM | [7] 73.5 µM | [8] > 100 µM | [9] > 100 µM | [10] > 100 µM | [11] > 100 µM | [12] > 100 µM | [13] > 100 µM | [14] > 100 µM | [15] > 100 µM | [16] > 100 µM

C/N=c1\ss/c(=N\C(=S)N(C)C)n1C1CCCCC1
inactive: [1] > 31.6 µM | [2] > 31.6 µM | [3] > 31.6 µM | [4] > 31.6 µM | [5] > 10 µM | [6] > 100 µM | [7] > 100 µM | [8] > 31.6 µM | [9] > 31.6 µM | [10] > 31.6 µM | [11] > 31.6 µM | [12] > 31.6 µM | [13] > 31.6 µM | [14] > 10 µM | [15] > 100 µM | [16] > 31.6 µM

Cc1ccc(N2C(=O)/C(=C/c3ccc(N(CCC#N)CCC#N)cc3)N=C2COc2ccc(Cl)cc2Cl)cc1
inactive: [1] > 100 µM | [2] > 100 µM | [3] > 100 µM | [4] > 100 µM | [5] > 100 µM | [6] > 100 µM | [7] > 100 µM | [8] > 100 µM | [9] > 100 µM | [10] > 100 µM | [11] > 100 µM | [12] > 100 µM | [13] > 100 µM | [14] > 100 µM | [15] > 100 µM | [16] > 100 µM

CC1CN1c1c(C(=O)/C=C/c2ccc(F)cc2)c(-c2ccccc2)nn(C)c1=O (stereo unspecified)
inactive: [1] 13.6 µM | [2] 14.2 µM | [3] 14 µM | [4] 18.3 µM | [5] 15.4 µM | [6] > 10 µM | [7] 9.46 µM | [8] 15.4 µM | [9] 16.9 µM | [10] 17.9 µM | [11] 18.5 µM | [12] 12.9 µM | [13] 19.8 µM | [14] 16.9 µM | [15] 23.8 µM | [16] 10.3 µM

CC(=O)n1nc(-c2ccccc2)n(/N=C/c2ccc([N+](=O)[O-])cc2)c1=O
inactive: [1] > 100 µM | [2] > 100 µM | [3] > 100 µM | [4] > 100 µM | [5] > 100 µM | [6] > 100 µM | [7] > 100 µM | [17] > 100 µM | [8] > 100 µM | [9] > 100 µM | [18] > 100 µM | [19] > 100 µM | [10] > 100 µM | [11] > 100 µM | [12] > 100 µM | [13] > 100 µM | [14] > 100 µM | [16] 65.9 µM

Cc1c(C(=O)CC(=O)C(=O)NC2C3CC4CC(C3)CC2C4)[n+]([O-])c2ccccc2[n+]1[O-] (stereo unspecified)
inactive: [1] > 100 µM | [2] > 100 µM | [3] > 100 µM | [4] > 100 µM | [5] > 100 µM | [6] > 100 µM | [7] > 100 µM | [8] 24 µM | [9] > 100 µM | [10] > 100 µM | [11] > 100 µM | [12] > 100 µM | [13] > 100 µM | [14] > 100 µM | [15] > 100 µM | [16] > 100 µM

CC1=CC(=O)N2[C@H](OC[C@@H]2C(C)C)O1
inactive: [1] > 100 µM | [2] > 100 µM | [3] > 100 µM | [4] > 100 µM | [5] > 100 µM | [6] > 100 µM | [7] > 100 µM | [8] > 100 µM | [9] > 100 µM | [10] > 100 µM | [11] > 100 µM | [12] > 100 µM | [13] > 100 µM | [14] > 100 µM | [15] > 100 µM | [16] > 100 µM

N#C/N=C(\N)NCCO
inactive: [1] > 100 µM | [2] > 100 µM | [3] > 100 µM | [4] > 100 µM | [5] 38.1 µM | [6] > 100 µM | [7] > 100 µM | [8] > 100 µM | [9] > 100 µM | [10] 18.3 µM | [11] 52.2 µM | [12] > 100 µM | [13] > 100 µM | [14] > 100 µM | [15] > 100 µM | [16] 16.6 µM
